Measurements published in ChEMBL document CHEMBL1250518, “Nonsteroidal dissociated glucocorticoid agonists containing azaindoles as steroid A-ring mimetics” (J Med Chem, 2010).
Activity calls are given as the source filed them. The calls are words filed in the database; no cut-off is given here.

Tests used:
[1] = Volume of distribution at steady state in Sprague-Dawley rat at 2 mg/kg, iv; assay type: ADME, organism-based; parameters: dose 2 mg/kg, route intravenous; details: in vivo, read-out: Vdss
[2] = Clearance in Sprague-Dawley rat at 2 mg/kg, iv; assay type: ADME, organism-based; parameters: dose 2 mg/kg, route intravenous; details: in vivo
Glucocorticoid receptor [3] = molecular target: T1, Glucocorticoid receptor (Homo sapiens, UniProt P04150); test: Transactivation activity at glucocorticoid receptor in human HeLa cells transfected with luciferase gene linked to MMTV promoter by luciferase assay; assay type: cell-based
T1 sequence (P04150 whole entry): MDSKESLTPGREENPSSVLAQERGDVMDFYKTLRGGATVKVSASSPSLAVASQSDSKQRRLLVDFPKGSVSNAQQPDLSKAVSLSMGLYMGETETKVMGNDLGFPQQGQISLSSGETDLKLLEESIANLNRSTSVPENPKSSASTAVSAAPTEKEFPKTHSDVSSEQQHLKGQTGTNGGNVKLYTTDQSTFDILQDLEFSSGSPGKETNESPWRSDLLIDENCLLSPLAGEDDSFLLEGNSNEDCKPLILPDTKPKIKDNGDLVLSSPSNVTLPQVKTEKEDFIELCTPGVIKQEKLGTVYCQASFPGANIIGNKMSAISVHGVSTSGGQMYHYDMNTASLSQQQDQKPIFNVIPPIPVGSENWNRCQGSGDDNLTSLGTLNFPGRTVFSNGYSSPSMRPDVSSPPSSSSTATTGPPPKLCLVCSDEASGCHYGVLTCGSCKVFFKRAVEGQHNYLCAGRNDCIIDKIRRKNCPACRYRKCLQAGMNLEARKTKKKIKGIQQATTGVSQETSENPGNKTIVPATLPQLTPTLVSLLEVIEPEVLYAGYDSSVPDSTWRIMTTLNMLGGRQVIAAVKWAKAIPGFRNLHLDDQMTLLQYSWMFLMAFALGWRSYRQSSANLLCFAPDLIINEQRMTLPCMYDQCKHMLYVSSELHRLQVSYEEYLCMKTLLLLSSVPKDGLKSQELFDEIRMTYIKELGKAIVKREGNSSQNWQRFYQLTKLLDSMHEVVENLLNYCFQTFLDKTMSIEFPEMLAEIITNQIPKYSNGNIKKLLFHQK

Glucocorticoid receptor [4] = molecular target: T1, Glucocorticoid receptor; test: Transactivation activity at glucocorticoid receptor in HFF assessed as induction of aromatase activity after 18 to 24 hrs by ELISA; assay type: cell-based
Glucocorticoid receptor [5] = molecular target: T1, Glucocorticoid receptor; test: Transrepression activity at glucocorticoid receptor in HFF assessed as inhibition of IL-1-induced IL-6 production after 18 to 24 hrs by ELISA; assay type: cell-based
Mus musculus [6] = test: Antiinflammatory effect in collagen and Freund's complete adjuvant-induced B10.RIII mouse arthritis model assessed as inhibition of disease progression at 100 mg/kg, po qd for 5 weeks; assay type: functional, organism-based; parameters: dose 100 mg/kg
Progesterone receptor = molecular target: T2, Progesterone receptor (Homo sapiens, UniProt P06401); test: Binding affinity to progesterone receptor expressed in baculovirus-infected insect cells using tetramethylrhodamine labeled RU-486 by fluorescence polarization microplate assay
T2 sequence (P06401 whole entry): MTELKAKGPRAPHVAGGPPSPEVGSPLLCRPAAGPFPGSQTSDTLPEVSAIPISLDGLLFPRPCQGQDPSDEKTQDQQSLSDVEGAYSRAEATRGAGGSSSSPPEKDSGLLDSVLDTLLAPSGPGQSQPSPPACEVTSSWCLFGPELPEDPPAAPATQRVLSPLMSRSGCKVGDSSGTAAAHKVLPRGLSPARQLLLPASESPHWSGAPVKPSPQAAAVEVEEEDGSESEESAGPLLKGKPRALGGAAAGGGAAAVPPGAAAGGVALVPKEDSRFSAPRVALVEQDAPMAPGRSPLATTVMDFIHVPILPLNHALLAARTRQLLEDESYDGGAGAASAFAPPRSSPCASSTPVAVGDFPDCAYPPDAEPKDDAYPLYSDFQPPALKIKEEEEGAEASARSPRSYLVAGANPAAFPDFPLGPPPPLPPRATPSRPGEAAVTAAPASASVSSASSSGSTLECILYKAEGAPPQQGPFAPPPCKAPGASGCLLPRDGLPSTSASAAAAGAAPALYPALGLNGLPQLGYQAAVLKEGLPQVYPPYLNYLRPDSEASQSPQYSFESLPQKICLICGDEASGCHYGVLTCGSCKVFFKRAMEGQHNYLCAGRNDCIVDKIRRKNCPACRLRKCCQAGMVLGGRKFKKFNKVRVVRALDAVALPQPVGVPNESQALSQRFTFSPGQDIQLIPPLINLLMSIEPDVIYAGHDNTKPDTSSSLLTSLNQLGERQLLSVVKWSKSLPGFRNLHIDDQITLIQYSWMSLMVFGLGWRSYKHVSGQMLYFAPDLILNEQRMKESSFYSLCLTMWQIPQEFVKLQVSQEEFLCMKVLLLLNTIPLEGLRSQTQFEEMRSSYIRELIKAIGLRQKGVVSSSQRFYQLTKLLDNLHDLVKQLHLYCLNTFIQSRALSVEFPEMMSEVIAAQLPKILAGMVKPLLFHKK

Glucocorticoid receptor [7] = molecular target: T1, Glucocorticoid receptor; test: Binding affinity to glucocorticoid receptor expressed in baculovirus-infected insect cells using tetramethylrhodamine labeled Dexamethasone by fluorescence polarization microplate assay
[8] = AUC (infinity) in Sprague-Dawley rat at 30 mg/kg, po; assay type: ADME, organism-based, Plasma; parameters: time infinity, dose 30 mg/kg, route oral; details: Sprague-Dawley, plasma
Mus musculus [9] = test: Antiinflammatory effect in collagen and Freund's complete adjuvant-induced B10.RIII mouse arthritis model assessed as inhibition of disease progression administered as po qd for 5 weeks; assay type: functional; details: 840 h
[10] = Half life in Sprague-Dawley rat at 2 mg/kg, iv; assay type: ADME, organism-based; parameters: dose 2 mg/kg, route intravenous; details: in vivo
[11] = Oral bioavailability in Sprague-Dawley rat at 30 mg/kg; assay type: ADME, organism-based; details: Sprague-Dawley, in vivo
Mus musculus [12] = test: Antiinflammatory activity in po dosed BALB/c mouse assessed as reduction of LPS-induced plasma TNFalpha level administered 1 hr before LPS challenge by ELISA; assay type: functional
[13] = Cmax in Sprague-Dawley rat at 30 mg/kg, po; assay type: ADME, organism-based; parameters: dose 30 mg/kg, route oral; details: in vivo
Mus musculus [14] = test: Toxicity in B10.RIII mouse assessed as increase of body fat content at 100 mg/kg, po qd for 5 weeks; assay type: organism-based; parameters: dose 100 mg/kg, route oral; details: in vivo, 840 h
Mus musculus [15] = test: Toxicity in B10.RIII mouse assessed as increase of serum insulin level at 100 mg/kg, po qd for 5 weeks; assay type: organism-based; parameters: dose 100 mg/kg, route oral; details: in vivo, 840 h
[16] = molecular target: T3, Mineralocorticoid receptor (Homo sapiens, UniProt P08235); test: Binding affinity to mineralocorticoid receptor expressed in baculovirus-infected insect cells using tetramethylrhodamine labeled Dexamethasone by fluorescence polarization microplate assay
T3 sequence (P08235 whole entry): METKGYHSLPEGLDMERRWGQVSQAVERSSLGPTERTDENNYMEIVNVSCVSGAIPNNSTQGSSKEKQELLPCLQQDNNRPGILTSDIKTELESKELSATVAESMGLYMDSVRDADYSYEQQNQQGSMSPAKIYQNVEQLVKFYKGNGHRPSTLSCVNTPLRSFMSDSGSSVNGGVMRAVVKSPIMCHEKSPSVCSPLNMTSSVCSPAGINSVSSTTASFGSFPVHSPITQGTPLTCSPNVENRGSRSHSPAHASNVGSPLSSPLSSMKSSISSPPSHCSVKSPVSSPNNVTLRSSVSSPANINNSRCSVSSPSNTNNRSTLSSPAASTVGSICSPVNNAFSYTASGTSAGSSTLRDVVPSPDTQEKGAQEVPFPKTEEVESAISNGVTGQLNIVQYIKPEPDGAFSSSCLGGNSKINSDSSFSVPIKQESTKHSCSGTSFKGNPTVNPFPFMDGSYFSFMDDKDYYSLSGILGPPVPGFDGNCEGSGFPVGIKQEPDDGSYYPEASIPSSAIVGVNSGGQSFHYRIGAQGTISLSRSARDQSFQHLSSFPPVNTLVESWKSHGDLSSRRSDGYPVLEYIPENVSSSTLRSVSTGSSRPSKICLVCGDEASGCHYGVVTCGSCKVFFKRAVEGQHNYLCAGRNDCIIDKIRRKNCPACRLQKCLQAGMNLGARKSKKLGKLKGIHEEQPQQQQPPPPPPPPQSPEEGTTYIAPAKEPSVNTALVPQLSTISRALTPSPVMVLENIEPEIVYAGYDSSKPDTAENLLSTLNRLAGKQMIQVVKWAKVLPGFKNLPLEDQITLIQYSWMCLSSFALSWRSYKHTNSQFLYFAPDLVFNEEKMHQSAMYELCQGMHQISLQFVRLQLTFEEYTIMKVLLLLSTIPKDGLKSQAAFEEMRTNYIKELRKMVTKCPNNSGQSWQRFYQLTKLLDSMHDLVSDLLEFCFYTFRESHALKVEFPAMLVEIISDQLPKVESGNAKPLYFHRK

[17] = Tmax in Sprague-Dawley rat at 30 mg/kg, po; assay type: ADME, organism-based; parameters: dose 30 mg/kg, route oral; details: in vivo
[18] = Clearance in Sprague-Dawley rat at 5 mg/kg, iv; assay type: ADME, organism-based; parameters: dose 5 mg/kg, route intravenous; details: in vivo
[19] = Half life in Sprague-Dawley rat at 5 mg/kg, iv; assay type: ADME, organism-based; parameters: dose 5 mg/kg, route intravenous; details: in vivo
[20] = Volume of distribution at steady state in Sprague-Dawley rat at 5 mg/kg, iv; assay type: ADME, organism-based; parameters: dose 5 mg/kg, route intravenous; details: in vivo, read-out: Vdss

Row | IC50 (Glucocorticoid receptor [3]) | EC50 (Glucocorticoid receptor [4]) | IC50 (Glucocorticoid receptor [5]) | IC50 (Progesterone receptor) | IC50 (Glucocorticoid receptor [7]) | AUC(0-inf) [8] | bioavailability [11] | Cmax [13] | IC50 [16] | SMILES | also measured
1 | > 2000 nM | > 2000 nM | 20 nM | > 2000 nM | 8 nM | 5930 ng·h/mL | 97% | 422 ng/mL | > 2000 nM | COc1ccc(-c2cncnc2)cc1C(C)(C)C[C@@](O)(Cc1cc2ccncc2[nH]1)C(F)(F)F | Vd [1]: 6.6 L/kg; clearance [2]: 83 mL/min/kg; Activity (Mus musculus [6]): Active; ED50 (Mus musculus [9]): 30 mg/kg; half-life [10]: 1 h; ED50 (Mus musculus [12]): < 1 mg/kg; Activity (Mus musculus [14]): Non-toxic; Activity (Mus musculus [15]): Non-toxic
2 | 20 nM | 10 nM | 6 nM | 1150 nM | 1.4 nM | 1740 ng·h/mL | 21% | 427 ng/mL | 380 nM | COc1ccc(F)cc1C(C)(C)C[C@@](O)(Cc1cc2ccncc2[nH]1)C(F)(F)F | Tmax [17]: 2 h; clearance [18]: 61 mL/min/kg; half-life [19]: 1.7 h; Vd [20]: 8.7 L/kg
